In patent publication US7977481B2, “Pyrimidinyl-thiophene kinase modulators” (SGX Pharmaceuticals, Inc., priority 2005, dated 2011) one finds IC50 data, which are given here for six compounds.

SMILES strings stand for the structures.

The test system of the first test is HCT116 cells. The experiment in a line: 96-well XTT cell survival assay (AurA XTT). It counts as cell-based. The note with it: Homo sapiens, HCT-116, 72 hours. How it is done: HCT116 cells were maintained in McCoy's 5a Medium supplemented with 10% fetal bovine serum (FBS) 2 mM L-Glutamine and 100 units penicillin/100 μg streptomycin, at 37° C. in 5% CO2
Compounds were tested in the following assays in duplicate.
96-well XTT assay: Cells were grown in growth media containing various concentrations of compounds (duplicates) on a 96-well flat bottom plate for 72 hours at 37° C. in 5% CO2. The starting cell number was 5000 cells per well and volume was 120 μl. At the end of the 72-hour incubation, 40 μl of XTT labeling mixture (50:1 solution of sodium 3′-[1-(phenylaminocarbonyl)-3,4-tetrazolium]-bis(4-methoxy-6-nitro) benzene sulfonic acid hydrate and Electron-coupling reagent: PMS (N-methyl dibenzopyrazine methyl sulfate) were added to each well of the plate. After an additional 2-6 hours […] with a spectrophotometer.
Compound `CCN(CCC#N)C(=O)c1ccc(-c2ccnc(Nc3ccncc3)n2)s1` came in with an IC50 of 1000 to 5000 nM.

In another test the target is T1, Autophosphorylated AurA kinase (Homo sapiens, UniProt O14965).
T1 construct: made in house; host or cells: Sf9 insect cells
T1 sequence (O14965 1-403): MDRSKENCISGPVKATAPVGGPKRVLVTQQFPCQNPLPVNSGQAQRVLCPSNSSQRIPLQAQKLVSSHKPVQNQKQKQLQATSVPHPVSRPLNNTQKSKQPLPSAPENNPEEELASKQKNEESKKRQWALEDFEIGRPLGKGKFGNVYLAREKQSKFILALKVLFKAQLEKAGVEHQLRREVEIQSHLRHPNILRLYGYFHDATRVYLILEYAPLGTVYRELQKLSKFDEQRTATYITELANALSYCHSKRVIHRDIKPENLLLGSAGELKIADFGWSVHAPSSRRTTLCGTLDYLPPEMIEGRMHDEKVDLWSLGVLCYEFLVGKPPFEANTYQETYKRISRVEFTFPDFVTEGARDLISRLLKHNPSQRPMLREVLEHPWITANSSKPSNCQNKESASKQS
Put plainly: AurA Luminescence-Based ATP Depletion Enzyme Assay. It counts as biochemical. The settings on record: 10 μM ATP. How it is done:
AurA Luminescence-Based ATP Depletion Enzyme Assay
Materials: Kemptide peptide substrate=LRRASLG (Biopeptide, San Diego, Calif.), ATP (Sigma Cat#A-3377, FW=551), HEPES buffer, pH 7.5, 10% Brij 35 (Calbiochem Cat#203728), MgCl2, Staurosporine (Streptomyces sp. Sigma Cat#85660-1MG), white Costar 384-well flat-bottom plate (VWR Cat#29444-088), Autophosphorylated AurA kinase (see below), Kinase-Glo™ (Promega Cat#V6712).
Stock Solutions: 10 mM Kemptide peptide (7.72 mg/ml in water), stored at −20° C.; 100 mM HEPES buffer+0.015% Brij 35, pH 7.5 (5 ml 1M HEPES stock+75 μL 10% Brij 35+45 ml miliQH2O); 10 mM ATP (5.51 mg/ml in dH2O) stored at −20° C. (diluted 50 μl into total of 10 ml miliQH2O daily=50 μM ATP working stock); 100 mM MgCl2; 200 μM Staurosporine, 2× Kinase-Glo™ reagent (made fresh or stored at −20° C.).
AurA Autophosphorylation Reaction: ATP and MgCl2 were added to 1-5 mg/ml AurA at final concentrations of 10 mM and 100 mM, respectively. The autophosphorylation reaction was incubated at 21° C. for 2-3 h. The reaction was stopped by the addition of EDTA to a final concentration of 50 mM, and samples were flash frozen with liquid N2 and stored at −80° C.
Standard Assay Setup for 384-well format (20 μl kinase reaction, 40 μl detection reaction): 10 mM MgCl2; 0.2 mM Kemptide peptide; 1 μl test compound (in DMSO); 0.3 μg/ml Autophosphorylated AurA kinase; 10 μM ATP; 100 mM HEPES+0.015% Brij buffer. Positive controls contained DMSO with no test compound. Negative controls contained 5 μM staurosporine. The kinase reactions were initiated at time t=0 by the addition of ATP. Kinase reactions were incubated at 21° C. for 45 min, then 20 μl of Kinase-Glo™ reagent were added to each well to quench the kinase reaction and initiate the luminescence reaction. After a 20 min incubation at 21° C., the luminescence was detected in a plate-reading luminometer.
The Sf9 insect cell pellets (˜18 g) produced from 6 L of cultured cells expressing human Aurora-2 were resuspended in 50 mM Na Phosphate pH 8.0, 500 mM NaCl, 10% glycerol, 0.2% n-octyl-β-D-glucopyranoside (BOG) and 3 mM β-Mercaptoethanol (BME). One tablet of Roche Complete, EDTA-free protease inhibitor cocktail (Cat#1873580) and 85 units Benzonase (Novagen Cat#70746-3)) were added per 1 L of original culture. Pellets were resuspended in approximately 50 ml per 1 L of original culture and were then sonicated on ice with two 30-45 sec bursts (100% duty cycle). Debris was removed by centrifugation and the supernatant was passed through a 0.8 μm syringe filter before being loaded onto a 5 ml Ni^2+ HiTrap column (Pharmacia). The column was washed with 6 column volumes of 50 mM Na Phosphate pH 8.0, 500 mM NaCl, 10% glycerol, 3 mM BME. The protein was eluted using a linear gradient of the same buffer containing 500 mM Imidazole. The eluant (24 ml) was cleaved overnight at 4° C. in a buffer containing 50 mM Na Phosphate pH 8.0, 500 mM NaCl, 10% glycerol, 3 mM BME and 10,000 units of TEV (Invitrogen Cat#10127-017). The protein was passed over a second nickel affinity column as described above; the flow-through was collected. The cleaved protein fractions were combined and concentrated using spin concentrators. Further purification was done by gel filtration chromatography on a S75 sizing column in 50 mM Na Phosphate (pH 8.0), 250 mM NaCl, 1 mM EDTA, 0.1 mM AMP-PNP or ATP buffer, and 5 mM DTT. The cleanest fractions were combined and concentrated to approximately 8-11 mg/ml, and were either flash frozen in liquid nitrogen in 120 μl aliquots and stored at −80° C., or stored at 4° C.
Compound `NC(=O)c1cccc(Nc2nccc(-c3ccc(Br)s3)n2)c1` yielded a half-maximal inhibitory concentration (IC50) of 100 to 500 nM.

Turning to `CC(O)c1cccc(Nc2nccc(-c3ccc(CNC(=O)c4ccccc4)s3)n2)c1` (stereo not shown), the IC50 lay within 100 to 500 nM.

As to `Cc1noc(C)c1-c1ccc(-c2ccnc(Nc3cccc(C(C)O)c3)n2)s1` (stereo not shown), the IC50 fell in the range of 100 to 500 nM.

On to `CC(O)c1cccc(Nc2nccc(-c3cc(C(=O)NCc4ccccc4)cs3)n2)c1` (stereo not shown), for which the IC50 is under 100 nM.

`O=S(=O)(Nc1ncc[nH]1)c1ccc(Nc2nccc(-c3ccc(S(=O)(=O)N4CCCCC4)s3)n2)cc1` came in with an IC50 of under 100 nM.

`CCN(CCC#N)C(=O)c1ccc(-c2ccnc(Nc3ccncc3)n2)s1` registered an IC50 of over 500 nM.

Usually IC50 stands for the point on the concentration scale where inhibition reaches its midpoint. Higher therefore signals weaker potency.
